US20260183350A1, “ANTIBIOTIC-RESISTANT BACTERIA” (priority 2022, published 2026)

Legend:
[1] = system: vancomycin-resistant E. faecalis; test: VRE nutrient utilization protocol: nitrogen sources, leave-one-out; type: cell-based, Enterococcus faecalis; conditions: aerobic; leave-one-out from nitrogen source mixture in minimal medium
Experimental: (§1) VRE minimal media consists of potassium phosphate monobasic (4 g/L), potassium phosphate dibasic (14 g/L), sodium citrate (1 g/L), magnesium sulphate (0.2 g/L), ammonium sulphate (2 g/L), adenosine (0.04 g/L), thymine (0.04 g/L), Kao and Michayluk vitamin solution [Sigma, K3129, 50× Stock](5×), glucose (1 g/L) and amino acid solution [Sigma, R7131, RPMI-1640, 50×](25×). If the study was performed under anaerobic conditions, fumarate (5.2 g/L) was added to increase growth of VRE strains. Carbon-free minimal media was prepared by leaving out glucose while nitrogen-free minimal media was prepared without the amino acid solution. Media was filter sterilized with a 0.22 micron filter and used immediately aerobically or degassed overnight if used anaerobically.
(§2) VRE strains were grown on R2A overnight before the cells were suspended in 0.9% saline to an OD of 0.38 (λ=595 nm). A 10% dilution of the cell suspension was prepared using VRE minimal media to achieve a final well OD of […] (λ=595 nm) greater than the sterile media OD. Both carbon and nitrogen source utilization were evaluated by adding the inoculated media and a filter-sterilised nutrient source solution into a well in a 1:1 ration to a final volume of 100 μL in aerobic tests and 200 μL in anaerobic tests. Carbon sources were tested individually and compared to a carbon-free control. To test nitrogen source utilization, a nitrogen source solution was prepared containing L-alanine (2 g/L), L-arginine (2.5 g/L, L-asparagine (0.71 g/L), L-aspartate (0.25 g/L), L-cysteine (0.625 g/L), L-glutamate (0.25 g/L), L-Glycine (0.125 g/L), L-histidine (0.1875 g/L), L-isoleucine (0.625 g/L), L-leucine (0.625 g/L), L-lysine HCl (0.5 g/L), L-methionine (0.1875 g/L), L-phenylalanine (0.1875 g/L), L-proline (0.25 g/L), L-serine (0.375 g/L), L-threonine (0.25 g/L), L-tryptophan (0.0625 g/L), L-tyrosine (0.29 g/L), L-valine (0.25 g/L), N-acetylglucosamine (2 g/L), and uracil (2.5 g/L). To test the strains' ability to utilize individual nitrogen sources, separate solutions were prepared eliminating one nitrogen source each. The change in growth compared to the complete nitrogen source solution control was used to determine nitrogen utilization. All carbon and nitrogen sources were tested in a technical triplicate for each biological replicate. Aerobic plates were incubated with a plate seal while anaerobic plates were not. The aerobic plate reader was set to read the plate (λ=595 nm, 37° C., 22 flashes per well, orbital shaking of 100 rpm for 15 s prior to each read) every 15 minutes for 24 hours. The anaerobic plate reader read the plate (λ=595 nm, 37° C., stationary) every 15 minutes for 24 hours.

[2] = system: NDM-1 Enterobacter cloacae; test: Carbon utilisation assay; type: cell-based; conditions: aerobic; M9 minimal medium, 0.5% (w/v) carbon source
Experimental: (§3) New Delhi Metallo-β-lactamase 1 (NDM-1) Escherichia coli, NDM-1 Klebsiella pneumoniae, and NDM-1 Enterobacter cloacae were isolated from patients with intestinal CRE colonisation from the Imperial College Healthcare NHS Trust via rectal swab (REC ref. 19/LO/0112). The species were assigned by matrix assisted laser desorption ionization-time of flight (MALDI-TOF) mass spectrometry and later confirmed with 16S rRNA gene sequencing. CRE status was determined using X-pert Carba-R PCR detection (Cepheid, Sunnyvale, CA, USA), (Otter, J. A. et al. Detecting carbapenemase-producing Enterobacterales (CPE): an evaluation of an enhanced CPE infection control and screening programme in acute care. J Antimicrob Chemother 75, 2670-2676 (2020)).
(§4) Growth of CRE isolates on sole carbon or nitrogen sources was tested by inoculating each CRE isolate into a minimal medium supplemented with the nutrient of interest. First, CRE isolates were passaged from frozen glycerol stocks on Reasoner's 2A agar (R2A) plates. Cells were then suspended in M9 minimal media to a turbidity of 42% using a Turbidimeter (Biolog Inc.), then diluted a further 1 in 6 to inoculate the carbon or nitrogen utilisation assays. M9 minimal media contained the following (at final concentrations): 22 mM KH2PO4, 42 mM Na2HPO4, 9 mM NaCl, 0.49 mM MgSO4·7H2O, 0.09 mM CaCl2), 0.011 mM FeSO4·7H2O. For the carbon assays the M9 minimal medium was also supplemented with 0.1% (w/v) NH4Cl (as the nitrogen source) and the carbon sources were individually tested at 0.5% (w/v) concentration. For the nitrogen assays the M9 minimal medium was also supplemented with 0.5% (w/v) glucose (as the carbon source) and the nitrogen sources were individually tested at 0.1% (w/v) concentration. Cultures were incubated anaerobically and aerobically in a plate reader and OD600 readings were collected every 15 minutes for 24 hours.
(§5) Growth curves were analysed in Python (v3.6.5) using the AMiGA software (Midani, F. S., Collins, J. & Britton, R. A. AMiGA: Software for Automated Analysis of Microbial Growth Assays. mSystems 6, e0050821 (2021)). Growth of each isolate was measured with 6 wells from 2-3 independent experiments. Growth curves were normalised to the no substrate control using the subtraction method. AMiGA performed Gaussian Process regression to test differential growth between the substrate and the no substrate control. The functional difference in the OD (and its credible interval) was also computed between the substrate and the no substrate control.

[3] = system: NDM-1 Klebsiella pneumoniae; test: Nutrient preference assay (nutrient mixture); type: cell-based; conditions: M9 with […] of each nutrient, up to 24 hours
Experimental: as §3
(§6) CRE isolates were passaged once from frozen glycerol stocks on R2A plates. Cells were suspended in M9 minimal media to a turbidity of 42% using a Turbidimeter (Biolog Inc.), then diluted 1 in 6 to inoculate the nutrient preference assays. M9 minimal media was supplemented with 0.015% of each of the following: L-arabinose, D-fructose, L-fucose, D-galactose, D-glucose, D-mannose, D-ribose, D-xylose, N-acetylglucosamine, D-maltose, sucrose, D-trehalose, L-alanine, L-arginine, L-aspartate, L-glutamate, L-glycine, L-isoleucine, L-leucine, L-lysine, L-methionine, L-phenylalanine, L-proline, L-threonine, L-tryptophan, L-tyrosine, L-valine, uracil, and succinate. Cultures were incubated anaerobically and aerobically in a plate reader and OD600 readings were collected every 15 minutes for 24 hours. Cultures were also incubated anaerobically and aerobically for 24 h and samples were collected at 0, 4, 8, and 24 hours post-inoculation for 1H-NMR spectroscopy. Changes in nutrients and metabolites by CRE isolates was compared to the sterile media control over time using a two-way mixed ANOVA followed by pairwise comparisons with Bonferroni correction. […]

[4] = system: NDM-1 Enterobacter cloacae; test: Nitrogen utilisation assay; type: cell-based; conditions: aerobic; M9 minimal medium with glucose, 0.1% (w/v) nitrogen source
Experimental: as §3, §4, §5

NDM-1 Escherichia coli [5] = test: Nitrogen utilisation assay; type: cell-based; conditions: M9 minimal medium with glucose, 0.1% (w/v) nitrogen source
Experimental: as §3, §4, §5

[6] = system: NDM-1 Klebsiella pneumoniae; test: Nitrogen utilisation assay; type: cell-based; conditions: aerobic; M9 minimal medium with glucose, 0.1% (w/v) nitrogen source
Experimental: as §3, §4, §5

[7] = system: vancomycin-resistant E. faecium; test: VRE nutrient utilization protocol: nitrogen sources, leave-one-out; type: cell-based, Enterococcus faecium; conditions: aerobic; leave-one-out from nitrogen source mixture in minimal medium
Experimental: as §1, §2

[8] = system: NDM-1 Klebsiella pneumoniae; test: Carbon utilisation assay; type: cell-based; conditions: aerobic; M9 minimal medium, 0.5% (w/v) carbon source
Experimental: as §3, §4, §5

[9] = system: NDM-1 Enterobacter cloacae; test: Nutrient preference assay (nutrient mixture); type: cell-based; conditions: M9 with […] of each nutrient, up to 24 hours
Experimental: as §3, §6

NDM-1 Escherichia coli [10] = test: Nutrient preference assay (nutrient mixture); type: cell-based; conditions: M9 with […] of each nutrient, up to 24 hours
Experimental: as §3, §6

Compound | Use as nitrogen source to support E. faecalis growth [1] | Use as sole nitrogen source to support E. cloacae growth [4] | Use as sole nitrogen source to support E. coli growth (NDM-1 Escherichia coli [5]; aerobic) | Use as sole nitrogen source to support K. pneumoniae growth [6] | Use as nitrogen source to support E. faecium growth [7] | Utilisation of nutrient by E. cloacae from nutrient mixture (1H-NMR) ([9]; aerobic) | Utilisation of nutrient by E. cloacae from nutrient mixture (1H-NMR) ([9]; anaerobic) | other results
N[C@@H](CS)C(=O)O [cysteine, L-cysteine] | could use |  |  |  |  |  |  | 
C[C@H](O)[C@@H](O)[C@@H](O)[C@H](O)C=O [fucose, L-fucose] |  |  |  |  |  |  |  | Use as sole carbon source to support E. cloacae growth [2]: able to grow; Utilisation of nutrient by K. pneumoniae from nutrient mixture (1H-NMR) ([3]; aerobic): not utilised; Utilisation of nutrient by K. pneumoniae from nutrient mixture (1H-NMR) ([3]; anaerobic): not utilised
NCC(=O)O [glycine, L-glycine] | could use | able to grow | able to grow | able to grow | could use |  |  | 
N[C@@H](Cc1c[nH]cn1)C(=O)O [histidine, L-histidine] | could use |  |  |  | could use |  |  | 
CC[C@H](C)[C@H](N)C(=O)O [isoleucine, L-isoleucine] | could use | able to grow | able to grow | able to grow | could use |  |  | 
CC(C)C[C@H](N)C(=O)O [leucine, L-leucine] | could use | able to grow | able to grow | able to grow | could use |  |  | 
N[C@@H](Cc1ccccc1)C(=O)O [phenylalanine, L-phenylalanine] |  | able to grow |  |  | could use |  |  | 
O=C(O)[C@@H]1CCCN1 [proline, L-proline] |  | able to grow | able to grow | able to grow |  | not utilised | not utilised | Use as sole carbon source to support K. pneumoniae growth [8]: able to grow; Utilisation of nutrient by E. coli from nutrient mixture (1H-NMR) (NDM-1 Escherichia coli [10]; aerobic): not utilised; Utilisation of nutrient by E. coli from nutrient mixture (1H-NMR) (NDM-1 Escherichia coli [10]; anaerobic): not utilised; Utilisation of nutrient by K. pneumoniae from nutrient mixture (1H-NMR) ([3]; anaerobic): not utilised
N[C@@H](CO)C(=O)O [serine, L-serine] | could use |  |  |  | could use |  |  | 
C[C@@H](O)[C@H](N)C(=O)O [threonine, L-threonine] |  | able to grow | able to grow |  | could use | high utilisation | high utilisation | Utilisation of nutrient by E. coli from nutrient mixture (1H-NMR) (NDM-1 Escherichia coli [10]; aerobic): moderate utilisation; Utilisation of nutrient by K. pneumoniae from nutrient mixture (1H-NMR) ([3]; aerobic): high utilisation
N[C@@H](Cc1ccc(O)cc1)C(=O)O [tyrosine, L-tyrosine] |  |  | able to grow |  |  | not utilised | not utilised | 
O=c1cc[nH]c(=O)[nH]1 [uracil] |  | able to grow | able to grow | able to grow |  | did not use | did not utilise | Utilisation of nutrient by E. coli from nutrient mixture (1H-NMR) (NDM-1 Escherichia coli [10]; aerobic): moderate utilisation; Utilisation of nutrient by E. coli from nutrient mixture (1H-NMR) (NDM-1 Escherichia coli [10]; anaerobic): moderate utilisation; Utilisation of nutrient by K. pneumoniae from nutrient mixture (1H-NMR) ([3]; aerobic): low utilisation; Utilisation of nutrient by K. pneumoniae from nutrient mixture (1H-NMR) ([3]; anaerobic): did not utilise
CC(C)[C@H](N)C(=O)O [valine, L-valine] | could use |  |  |  | could use |  |  | Use as sole nitrogen source to support E. coli growth (NDM-1 Escherichia coli [5]; anaerobic): could use
